# Data: patent US9000027B2, “Chk1 suppresses a caspase-2 apoptotic response to DNA damage that bypasses p53, bcl-2 and caspase-3” (Dana-Farber Cancer Institute, Inc., priority 2008, dated 2015)
# Entries after “also recorded” stand apart in the source; their conditions may differ.
# Experiments:
# p53^+/+ embryos = experiment: Drug toxicity: AO reactivity and development of inhibitor-treated, non-irradiated p53+/+ embryos; format: in vivo, zebrafish; settings: 0 Gy
# From the text: Chk1 inhibitors hold considerable promise in cancer therapy, as they are expected to synergize with genotoxic agents to kill tumor cells lacking functional p53, without affecting normal cells (Kawabe, 2004; Zhou and Bartek, 2004). […] Gö6976 has not been tested in vivo in a vertebrate model system. We therefore evaluated it as well as specific Chk2 and ATM inhibitors in the zebrafish system. Drug toxicity was monitored by scoring the AO reactivity of inhibitor-treated, but non-irradiated, p53^+/+ embryos (left column in FIG. 8A). Unless otherwise indicated, the inhibitors were applied at 18 hpf (that is, immediately before IR) for a total of 6 hours.
# Immediately before IR, 18-hpf embryos were dechorionated and transferred to fresh egg water containing 1% DMSO, with or without the following inhibitors at indicated final concentrations: KU55933 (10 μM; Sigma) (Hickson et al., 2004); Chk2 Inhibitor II (10 μM; Calbiochem) (Arienti et al., 2005); Gö6976 (1 μM; Calbiochem) (Kohn et al., 2003). Unless stated otherwise, embryos were exposed to the inhibitors for 6 hr, transferred to fresh egg water, rinsed five times for 5 min, and labeled with AO. For experiments with Tg(rag2:EGFP-bcl-2) larvae, larvae were incubated in the inhibitor solution at 4 dpf, irradiated at 5 dpf, rinsed at 6 dpf, incubated in fresh inhibitor for an additional 72 hr, and mounted live at 9 dpf for fluorescence microscopic analysis of EGFP expression.
# HeLa cells = experiment: Cell viability assay (CellTiter-Glo) after IR; format: cell-based, human; settings: 10 Gy, 72 hpIR
# Method: For the cell viability assay, Tg(BCL2)^− and Tg(BCL2)^+ H218 cells were seeded into black 96-well plates (BD Bioscience) at a density of 1000 cells per well on day 1. 24-well sets were treated with DMSO or Gö6976 (1 μM), and plates were exposed to 0 or 10 Gy IR on day 2. After 72 hr, cellular viability was measured with the CellTiter-Glo Luminescent Cell Viability Assay kit (Promega) according to the manufacturer's instructions. Cellular viability for each well was calculated as a percentage of the mean viability of DMSO-treated, non-irradiated cells. The mean cellular viability and SEM were calculated and plotted with GraphPad Prism version 3 (GraphPad Software, San Diego Calif., USA). Each viability experiment was performed twice.
# caspase-2 = experiment: Western blot of caspase-2 cleavage in human cancer cells; format: cell-based
# Method: Protein extract (5-60 μg) was added to 4× gel loading buffer and 10× denaturing solution (Invitrogen) in appropriate proportions, and samples were incubated at 70° C. for 10 min. Samples were run at 200V for 1 hr on a 4-12% Bis-tris gradient gel (Invitrogen). After electrophoresis, samples were transferred for 1.5 hr (350 mA) to a Nitrocellulose membrane (Millipore) using a submerged transfer apparatus (Bio-Rad). Membranes were then blocked with 5% milk in Tris-buffered saline with 0.1% tween (TBST) and probed overnight at 4° C. with the following antibodies: anti-zebrafish Chk1 (diluted 1:200), anti-zebrafish Chk2 (1:200), anti-P-Cdc2 (1:1000), anti-actin (1:2000), anti-human ATR (1:500) and Stressgen anti-human-caspase-3 (1:500) for zebrafish immunoblots; and anti-caspase-2 (1:200), Upstate anti-caspase-3 (1:500), anti-P-ATM (1:500), anti-ATM (1:500), Santa Cruz anti-human Chk1 (1:1000), Santa Cruz anti-human Chk2 (1:1000), anti-P-Chk1 (1:500), anti-P-Chk2 (1:500), anti-P-H2A.X (1:2000), anti-P-cdc25C (1:1000), anti-P-HSP27 (1:1000), anti-HSP27 (1:1000), anti-P-Cdc2 (1:1000), anti-p53 (1:1000) and anti-GAPDH (1:5000) for immunoblots of human tumor cell lysates. Detailed references for all primary antibodies can be found in the ‘Antibodies’ section elsewhere herein.
# myeloid cells = experiment: Quantification of myeloid cells (mpo/l-plastin in situ hybridization) in irradiated embryos; format: in vivo, zebrafish; settings: p53^e7/e7 background, IR, 28 hpf
# From the text: FIG. 2 provides a series of fluorescent images, western blot images, in situ hybridization images and two sets of graphs as outlined below. chk1 knockdown radiosensitizes p53 mutants but is otherwise compatible with normal zebrafish development. (A) Fluorescence images of representative embryos of indicated genotypes+/−chk1 MO after 0- or 12.5-Gy IR. 5 bpmmMO, 5-base-pair mismatch MO. (B) Quantified AO responses of indicated genotypes with or without IR (12.5 Gy) and chk1 MO. Gray bars, p53^+/+ background; black bars, p53^e7/e7 background. AO staining was quantified in ≧8 embryos per condition, with ≧1000 embryos scored. All data are reported as means+/−SEM. ***P<0.0001 (two-tailed Student's t-test). […] (E) Fluorescence images of representative embryos of indicated genotypes. p53^e6 is the N168K mutation, corresponding to human residue 200. p53MO, MO against the p53 5′UTR. (F) Fluorescence images of live transgenic embryos injected with the indicated MOs at the 1-cell stage and expressing EGFP in the notochord (top, embryos photographed at 24 hpf) or in myeloid progenitors (bottom, embryos photographed at 16.5 hpf). […] (G) Quantification of myeloid cells in 28 hpf embryos generated as indicated (x-axis) and processed as in panel H. Gray bars, p53^+/+ background; black bars, p53^e7/e7 background. mpo/lplastin staining was quantified in 15 embryos per condition. […]
Compound,long-term development of non-irradiated treated embryos (p53^+/+ embryos; p53+/+),"toxicity of the dose used (AO reactivity of non-irradiated embryos) (p53^+/+ embryos; Gö6976 1 μM, KU55933 10 μM, Chk2 Inhibitor II 10 μM)",radiosensitizing effect (cell killing) (HeLa cells; Gö6976 1 μM) [%],radiosensitization of HeLa cells (HeLa cells; regardless of BCL2 transgene) [fold],"caspase-2 activation (caspase-2; HeLa, 2 Gy, Gö6976 500 nM for 24 hbIR)","caspase-2 cleavage (caspase-2; HeLa, 2 or 3.2 Gy, Gö6976 1 μM applied 1 hbIR)","caspase-2 activation (caspase-2; HeLa, 3.2 Gy, Gö6976 1 μM applied 6 hbIR)","caspase-2 cleavage (caspase-2; HeLa, 10 Gy, 24 hpIR, Gö6976 1 μM applied 1 hbIR)","caspase-2 cleavage (caspase-2; TP53+/+ HCT116 cells, IR+Gö6976)","caspase-2 cleavage versus single- or no-treatment controls (caspase-2; TP53 null or mutant lines (TP53-/- HCT116, SAOS2, MDA-MB-435, LN-428), 10 Gy IR+Gö6976)",average reduction in myeloid cell numbers (myeloid cells) [fold]
Cn1c2ccccc2c2c3c(c4c5ccccc5n(CCC#N)c4c21)CNC3=O [Gö6976],developed into normal adults without overt signs of spontaneous tumorigenesis or other pathologies,non-toxic,~50,~2,synergistic activation of caspase-2 was observed,no detectable cleavage,as efficiently as the standard 10 Gy protocol,readily apparent; also recorded: strong caspase-2 cleavage,inability to cleave caspase-2,increases in caspase-2 cleavage,
"chk1 MO: morpholino against zebrafish chk1 atg/5'UTR, aggcacagccattatgcaatcttcg (SEQ ID NO: 11) (AGGCACAGCCATTATGCAATCTTCG; all phosphorodiamidate morpholino (PMO))",,,,,,,,,,,2
